According to patent US10959984B2, “Methods for treating cancer with RORγ inhibitors” (THE REGENTS OF THE UNIVERSITY OF CALIFORNIA, priority 2015, dated 2021):
“Also recorded” adds a separate entry of the source.

Assays:
AR = experiment: ARE reporter gene assay (5xARE-tk-luc) in 22Rv1 cells; assay type: cell-based, human
Description: Transient transfection and reporter gene assays were performed as previously described^49 with the following modifications. ARE reporter gene assays were performed by transfecting 22Rv1 cells with 5×ARE-tk-luc, pcDNA3.1-hAR and pCMV-β-gal for normalization. For transfection with constructs omitted for specific gene expression, corresponding empty vectors were used to ensure equal amount of total DNA used. Briefly, 22Rv1 cells seeded in 96-well plates in hormone-deprived medium supplemented with 10% cds-FBS (Hyclone) were transfected with lipofectamine 2000 (Life technology, Carlsbad, Calif., USA) and the indicated plasmid DNA. Cells were then treated at 12 hours after transfection with 3 nm R1881, indicated concentrations of RORγ antagonists or ENZ for another 24 hours before harvested for β-gal and luciferase assays. For RORE reporter gene assays, 4×AR-RORE-tk-luc was constructed by inserting four copies of the newly identified AR-RORE TTCTGGGTCA (SEQ ID NO: 1) into tk-luciferase reporter vector. AR-RORE mutant form (AR-RORE mut) contains sequences mutated from TTCTGGGTCA (SEQ ID NO: 1) to TTCTGAACGA (SEQ ID NO: 2). […] The luciferase and β-galactosidase were then analyzed with a Luciferase Assay Substrate (Promega) and Luminescent β-galactosidase Detection Kit II (Clontech). […]

22Rv1 xenografts = experiment: 22Rv1 xenograft tumor growth; assay type: in vivo, mice; conditions: nude mice; SR2211 5 mg/kg i.p., 8k/E11 10 and 20 mg/kg i.p., five times per week (FIG. 3A)
Description: (§1) Four-week-old male SCID C.B17 mice (for C4-2B and VCaP) or BALB/c nu/nu athymic mice (for 22Rv11 and PC-3) were purchased from Harlan Inc. For establishing tumors, 2×10^6 cells were suspended in total of 100 μL PBS/Matrigel (1:1) and implanted subcutaneously into the dorsal flank on both sides of the mice. Animal group size of six or more was estimated to have a high statistic power, based on power calculation (http://www.biomath.info/power/) and previous studies involving the same xenograft models^34,68. When the tumor volume was approximately 80 mm^3, the mice were randomized and then treated intraperitoneally (i.p.) with 100 μl of either vehicle or RORγ antagonists SR2211, XY011/8k (in a formulation of 15% Cremophor EL, Calbiochem, 82.5% PBS, and 2.5% DMSO) for five times per week. Tumor growth was monitored by calipers with volume calculated using the equation: (π/6 (length×width2)). Body weight during the course of the study was also monitored. At the end of the studies mice were killed and tumors were dissected and weighed. Additionally, prostate, seminal vesicle, testis, kidney, heart, lung, liver, epididymal fat pad and spleen were harvested and weighed. To assess the effect of combining RORγ antagonists and ENZ on the growth of castrated-resistant VCaP xenografts (CRPC-VCaP), first, SCID C.B17 mice were injected with VCaP cells as above to establish the tumors. Then, mice bearing tumors of approximately 180 mm^3 were surgically castrated. They were then observed for tumor regression. Once tumors grew back to the pre-castration size, mice were randomized and treated with vehicle, 5 mg kg^−1 SR2211, 10 mg kg^+1 ENZ or a combination of 5 mg kg^−1 SR2211 and 10 mg kg^−1 ENZ. ENZ was given by oral gavage as previously described^68 and SR2211 was administered i.p as above. Mice were excluded from the study if bearing no tumor or tumor with size twice larger or smaller than the mean, at the time of randomization.

CRPC-VCaP xenografts = experiment: Castration-resistant VCaP (CRPC-VCaP) xenograft tumor growth; assay type: in vivo; conditions: castrated mice, ENZ alone, 10 mg/kg oral
Description: as §1, with “Then, mice bearing tumors of approximately 180 mm^3 were surgically castrated. They were then observed for tumor regression. Once tumors grew back to the pre-castration size, mice were randomized and treated with vehicle, 5 mg kg^−1 SR2211, 10 mg kg^+1 ENZ or a combination of 5 mg kg^−1 SR2211 and 10 mg kg^−1 ENZ. ENZ was given by oral gavage as previously described^68 and SR2211 was administered i.p as above. Mice were excluded from the study if bearing no tumor or tumor with size twice larger or smaller than the mean, at the time of randomization.” left out

[1] = mouse, in vivo
Description: as §1, with “Then, mice bearing tumors of approximately 180 mm^3 were surgically castrated. They were then observed for tumor regression. Once tumors grew back to the pre-castration size, mice were randomized and treated with vehicle, 5 mg kg^−1 SR2211, 10 mg kg^+1 ENZ or a combination of 5 mg kg^−1 SR2211 and 10 mg kg^−1 ENZ. ENZ was given by oral gavage as previously described^68 and SR2211 was administered i.p as above. Mice were excluded from the study if bearing no tumor or tumor with size twice larger or smaller than the mean, at the time of randomization.” left out

[2] = tested on: TNBC cells including MDA-MB468, MDA-MB231, BT20, SUM149, and HCC1937; experiment: CellTiter-GLO viability, triple-negative breast cancer cells; assay type: cell-based; conditions: Homo sapiens, 96 h, treated for 4 days
Description: (§2) For cell viability, cells were seeded in 96-well plates at 1500-2500 cells per well (optimum density for growth) in a total volume of 100 μl media. Serially diluted compounds in […] of media were added to the cells 12 hours later. After 4 days of incubation, Cell-Titer GLO reagents (Promega) were added and luminescence was measured on GLOMAX microplate luminometer (Promega), according to the manufacturer's instructions. All experimental points were set up as sextuplicate as biological replication and the entire experiments were repeated three times. The data are presented as percentage of viable cells with vehicle treated cells set as 100. The estimated in vitro IC50 values were calculated using GraphPad Prism 6 software.
(§3) Using a CellTiter-GLO assay, the viability of cells of different cancer types was measured after treatment with different concentrations of RORγ small molecule inhibitors for 4 days.

[3] = tested on: ER-positive cells, such as MCF-7 and T47D; experiment: CellTiter-GLO viability, ER-positive breast cancer cells; assay type: cell-based; conditions: Homo sapiens, 96 h; ER-positive cells MCF-7 and T47D, treated for 4 days
Description: as §2, §3

[4] = tested on: HER2-positive cells, such as SKBR3 and HCC1954; experiment: CellTiter-GLO viability, HER2-positive breast cancer cells; assay type: cell-based, human; conditions: SKBR3 and HCC1954, 4 days
Description: as §2, §3

breast cancer cells = experiment: CellTiter-GLO viability, breast cancer cells; assay type: cell-based, human; conditions: cells having different major molecular features, 4 days
Description: as §2, §3

MCF-7-TamR cell line = experiment: Growth of tamoxifen-resistant breast cancer cells; assay type: cell-based, human; conditions: MCF-7 TamR cells, in combination with tamoxifen
Description: as §3

lung cancer cells = experiment: CellTiter-GLO viability, lung cancer cells; assay type: cell-based, human; conditions: NSCLC cells: KRAS mutant (A427, Calu1, A549, H23, H358), BRAF mutant (H1666), EGFR mutant (HCC827, PC-9), Erlotinib-resistant (A427, H1975); 4 days
Description: as §2, §3

[5] = tested on: OVCAR420, T24, ECC1, HepG2, Hep3B, T98G, SUDHL4, SUDHL6, HCT116 and docetaxel-resistant C4-2B cells; experiment: CellTiter-GLO viability, cells of other cancer types; assay type: cell-based, human; conditions: ovarian OVCAR420, bladder T24, endometrial ECC1, liver HepG2 and Hep3B, glioblastoma T98G, DLBCL SUDHL4 and SUDHL6, colon HCT116, docetaxel-resistant C4-2B; 4 days
Description: as §2, §3

SMILES	response of multimerized ARE-driven reporter (AR)	growth of xenograft tumors (22Rv1 xenografts)	CRPC tumor growth (CRPC-VCaP xenografts)	tolerability based on weight of whole body and vital organs, and general behaviors [1]	IC50 [2] [µM]	IC50 [3] [µM]	inhibition of HER2-positive cells [4]	growth and survival of breast cancer cells (breast cancer cells)	sensitization of tamoxifen-resistant breast cancer cells to tamoxifen (MCF-7-TamR cell line)	growth and survival of lung cancer cells (lung cancer cells)	growth and survival of cancer cells of other types [5]
CNC(=O)c1ccc(N2C(=S)N(c3ccc(C#N)c(C(F)(F)F)c3)C(=O)C2(C)C)cc1F [ENZ, enzalutamide]	repressed	did not show any significant inhibitory effect	only marginally effective	well tolerated	–	–	–	–	–	–	–
CCS(=O)(=O)c1ccc(CC(=O)Nc2cc(Cl)c(-c3ccccc3OC(F)(F)F)c(Cl)c2)cc1 [GSK805, N-(3,5-Dichloro-4-(2-(trifluoromethoxy)phenyl)phenyl)-2-(4-ethylsulfonylphenyl)acetamide]	–	–	–	–	1 to 10	> 10	relatively strong inhibition	strongly inhibited the growth and survival of breast cancer cells	able to sensitize tamoxifen-resistant breast cancer cells to tamoxifen; also recorded: sensitized MCF-7 TamR cells to tamoxifen	strongly inhibited the growth and survival of lung cancer cells	significant inhibition of the growth and survival
